For assay [1], the system named is rat brain homogenate. As to the kind of experiment: Formation of lipid peroxide through the autoxidation of rat brain homogenate (TBA method). Format: biochemical. To be noted: for Amount of MDA: 37° C. 30 min, mean ± standard deviation (n = 3); for Rate of Suppression: suppression of lipid peroxide formation. The method, then: The present compound was examined for the effect on the formation of lipid peroxide through the autoxidation of a rat brain homogenate.
Wistars rat (purchased from SLC Japan (Kabushiki Kaisha)) were decapitated without anesthesia and the skull was immediately opened and the brain removed. The brain taken out was washed with ice-cooled, phoshate buffered saline (PBS (50 mM, pH 7.4)), lightly blotted with filter paper and weighed. Four times ice-cooled PBS was added to the brain and homogenized in ice. The homogenate was centrifuged at 1000×g (2700 rpm) for 10 min at 0° C. The supernate thus obtained was used for the test. To 100 μl of the test compound were added 700 μl of PBS and 200 μl of the supernate of the brain homogenate, and incubated at 37° C. for 30 min. A control group and a blank group were incubated with PBS, with the blank group at 0° C. for 30 min. Then, 200 μl of 35% perchloric acid was added to cease the reaction and the mixture was centrifuged at 1300×g (3200 rpm) for 10 min at 0° C. Using the supernate as a sample, the amount of malondialdehyde (MDA) formed was determined by thiobarbituric acid colorimetric method (TBA method).
To 0.11 g (0.5 mmol) of 1,1,3,3-tetraethoxypropane was added methanol to make 50 ml of volume. This solution was diluted 10^3, 3×10^3 and 10^4-folds with methanol and used as the standards (10 μM, 3 μM, 1 μM). Methanol was assigned to 0 μM.
To 1 ml of each of the samples or the standards were added 0.2 ml of 8.1% sodium dodecylsulfate (SDS), 1.5 ml of 20% acetate buffer (pH 3.5) and 0.8% thbiobarbituric acid (TBA) and incubated in a boiling water bath for 60 min. After ice-cooling to cease the reaction, 4 ml of butanol-pyridine (15:1) was added and mixed well. After centrifugation at 1200×g (3000 rpm) for 10 min, the fluorescence intensity of the butanol-pyridine layer was measured at the wavelength of 553 nm with the excitation wavelength of 515 nm.
The rate of suppression of lipid peroxide formation was calculated according to the following equation for each test compound.
Rate of suppression of lipid peroxide formation (%)=[1-(C-A/B-A)]×100
A: Amount (μM) of formed MDA for the blank group
B: Amount (μM) of formed MDA for the control group
C: Amount (μM) of formed MDA for a test compound group

Assay [2] has as its system acetaminophen-induced hepatopathy. As to the kind of experiment: Effect on acetaminophen-induced hepatopathy in mice. Format: in vivo. To be noted: male ddy mice. The method, then:
The present compound was examined for the effect on acetaminophen-induced hepatopathy in mice.
The compound of Example 2 (abbreviated to ETS-GS-Na) 0.1 mmol/ 10 ml/kg, i.p.
7-week old male ddy mice purchased from SLC Japan (Kabushiki Kaisha) were used for the test following a 24-hour fasting.
Hepatopathy was induced by oral administration of 250 mg/10 ml/kg acetaminophen (dissolved by warming).
24 hours after the oral administration of acetaminophen, blood were sampled for measurement of GOP and GPT activities, indices of hepatopathy. The mice were kept on fasting for 48 hours until the blood sampling was made.
The test compound was intraperitoneally injected 30 min before the administration of acetaminophen.

The subject of assay [3] is buthionine sulfoximine (BSO)-induced cataract. In words: Effect on BSO-induced cataract in rats. Type of assay: in vivo. As to conditions: newborn SD rats. The method, then: The present compound was examined for the effect on buthionine sulfoximine (BSO)-induced cataract in rats.
The compound of Example 2 (abbreviated to ETS-GS-Na) 0.1 mmol/10 ml/kg, i.p.
The test was performed according to the method of Maitra et al.
Indrani Maitra, Elena Serbinova et al., α-Lipoic Acid Prevents Buthionine Sulfoximine-induced Cataract Formation in Newborn Rats Free Radical Biology & Medicine, Vol. 18, No. 4, pp.823-829, 1995.
28 to 36-hour old SD rats purchased from SLC Japan (Kabushiki Kaisha) were used for the test.
Cataract was induced by subcutaneously administering 3 mmol/kg of BSO at 8:00 A.M. and 4:00 P.M. for 2 days.
Observation of cataract was performed using a slit lamp microscope after the newborn rats opened their eyes after the BSO administration. The opacity of each of the lenses was assessed and classified into one of the following 0-5 grades.
0: a clear lens without opacity
1: a lens with opacities in part of the equatorial region
2: a lens with opacities along the equatorial region
3: a lens with opacities in part of the cortex
4: a lens with opacities in the whole cortex
5: a lens with opacities advancing up to the central region.
The test compound was intraperitoneally administered 4 and 12 hours after the administration of BSO.

The mark [4] stands for this setting: 0.1 mmol/10 ml/kg i.p. 30 min before acetaminophen 250 mg/kg p.o., blood 24 hours after acetaminophen.

With `Cc1c(C)c2c(c(C)c1OC(=O)C(CC(=O)O)SC[C@H](NC(=O)CC[C@H](N)C(=O)O)C(=O)NCC(=O)O)CCC(C)(CCCC(C)CCCC(C)CCCC(C)C)O2` (stereo partly drawn) [Example 1, S-[2-Carboxy-1-(α-tocopheryl-6-yl-oxycarbonyl)Ethyl]glutathione], the “Amount of MDA” value in assay [1] (3 × 10^−5M) came to 0.838 ± 0.056 µM; in assay [1] (3 × 10^−6M), 4.079 ± 0.126 µM; in assay [1] (10^−5M), 1.338 ± 0.039 µM; in assay [1] (10^−6M), 5.208 ± 0.083 µM. In addition, the “Rate of Suppression” value in assay [1] (3 × 10^−5M) was 93.94 ^*3%; in assay [1] (3 × 10^−6M), 40.17 ^*3%; in assay [1] (10^−5M) it was 85.64 ^*3%; in assay [1] (10^−6M), 21.43 ^*2%.
Take `Cc1c(C)c2c(c(C)c1OC(=O)C(CC(=O)NCCS(=O)(=O)O)SC[C@H](NC(=O)CC[C@H](N)C(=O)O)C(=O)NCC(=O)O)CCC(C)(CCCC(C)CCCC(C)CCCC(C)C)O2` (stereo partly drawn) [Example 2, S-[2-(N-Carbonylaminoethylsulfonic acid)-1-(α-tocopheryl-6-yl-oxycarbonyl)ethyl]glutathione]: the “effect on acetaminophen-induced hepatopathy” value in assay [2] (0.1 mmol/10 ml/kg i.p.) was “significant suppressing effect”. In addition, in assay [2] (setting [4]), the “blood GOT activity” value is reported as 336±89 IU/1 and the “blood GPT activity” value was determined as 47±22 IU/1. Also, in assay [3] (0.1 mmol/10 ml/kg i.p.), the “suppression of BSO-induced cataract” value is “complete suppression”. Besides, the “average grade of lens opacity” value in assay [3] (BSO 3 mmol/kg s.c., 0.1 mmol/10 ml/kg i.p. 4 and 12 hours after BSO, slit lamp, grades 0-5) was found to be 0.
Take “S-[2-(N-Carbonylaminoethylsulfonic acid)-1-(α-tocopheryl-6-yl-oxycarbonyl)ethyl]cysteine [Example 5]”: the “Amount of MDA” value was found to be 0.980 ± 0.249 µM in assay [1] (3 × 10^−5M), 4.890 ± 0.052 µM in assay [1] (3 × 10^−6M), 4.090 ± 0.348 µM in assay [1] (10^−5M) and 5.022 ± 0.060 µM in assay [1] (10^−6M). In addition, the “Rate of Suppression” value in assay [1] (3 × 10^−5M) is 91.59 ^*3%; in assay [1] (3 × 10^−6M) it was 26.71 ^*2%; in assay [1] (10^−5M) it was 39.98 ^*2%; in assay [1] (10^−6M), 24.52 ^*2%.

(Values after US6387882B1, “Vitamin E derivatives” (Senju Pharmaceutical Co., Ltd., priority 1997, dated 2002).)
